The values below come from publication PMC6511943, “Structure-Guided Drug Design of 6-Substituted Adenosine Analogues as Potent Inhibitors of Mycobacterium tuberculosis Adenosine Kinase” (Journal of Medicinal Chemistry, 2019).

Structures are written as SMILES. Converted amounts (≈) assume the structure as drawn.

Data set [1] addresses T1, MtbAdoK (Mycobacterium tuberculosis, UniProt P9WID5). The settings on record: read-out: Km for adenosine, previously reported values; cited from earlier work.
The test system of data set [2] is Mtb H37Rv WT. The data set is described as follows: microbe, parasite or virus in culture. Type of data set: cell-based. The settings on record: Mycobacterium tuberculosis.
In data set [3] the test system is human dermal fibroblasts (HDF). Kind of data set: in vitro. The class given is cell-based. The settings on record: HDF cells. The method, then: HDFs were purchased from ATCC (Manassas, VA). HDF cells were cultured in DMEM (Lonza) media supplemented with 10.0% fetal bovine serum (Lonza) and penicillin/streptomycin (Lonza). For the cytotoxicity assay, compound stocks were serially diluted in phosphate-buffered saline plus 10.0% DMSO. On the day of assay, HDF cells were trypsinized, counted, and resuspended at a concentration of 64 000 cells/mL in media. Cells were plated, overlaid with the compound serial dilutions, and incubated at 37.0 °C. After 48.0 h, resazurin dye was added, and the assay plates cultured for another 24.0 h. On the next day, the absorbance of the resazurin was measured on a microplate reader to assess cell death. Cytotoxicity was determined as a percent control, and CC50 values for each compound were determined by utilizing eq 1.

Data set [4] deals with Mtb mc^2 7000. Kind of data set: Antimycobacterial assay (MABA). The class given is cell-based. The settings on record: Mycobacterium tuberculosis, Mtb mc^2 7000, MABA, 6 days + 2 days resazurin. In general terms: The colour change of resazurin is a common sign of viable cells or microbes.
Data set [5] is described as follows: in vivo. More on the design: species or system Swiss Webster mice. The settings on record: female, ND4 Swiss Webster, mouse, po. The method, then: (§1) Eight-week old female ND4 Swiss Webster mice (∼28 g each) (Envigo, Indianapolis, IN) were used for PK and combination tolerability-snapshot PK studies. Compound 18 was formulated in 5% DMSO, 95% canola oil and administered as a single 100 μL oral gavage at 10 mg·kg^–1 for PK and as a 200 μL oral gavage at 50, 100, or 200 mg·kg^–1 QD × 3 days for tolerability-snapshot PK. Mice were anesthetized using isoflurane and 50 μL collected at 0, 0.25, 0.5, 1, 2, and 4 h survival bleed times for traditional PK or 0, 1, 4, and 24 h for tolerability-snapshot PK studies after the first administered dose. Around 200 μL was collected at 6, 8, and 24 h terminal bleed times for the traditional PK. Survival bleeds were drawn from the facial vein and terminal bleeds via cardiac puncture following CO2 asphyxiation.[35] Three mice were used per time point.
Blood samples were centrifuged (3000g, 15 min) for plasma separation. Aliquots of plasma (10 μL) were extracted with two 500 μL equivalents of methanol containing 0.1% formic acid to ensure maximum recovery of compound 18 from plasma. The supernatant was collected from precipitated protein pellet following centrifugation (3000g, 5 min) and evaporated to dryness using a temperature-controlled Eppendorf Vacufuge at 30 °C for 4 h. The dry samples were reconstituted with 100 μL of methanol (1:10 original analyte dilution factor) spiked with 250 ng·mL^–1 verapamil (Sigma-Aldrich) as an internal standard and subjected to LC/MS analysis on a Bruker Daltronics micrOTOF-Q II mass spectrometer coupled with an Agilent 1200 Infinity series HPLC with temperature controlled autosampler (24 °C) and photodiode array detector. Standard solutions of compound 18 ranging from 1000 to 7.8125 ng·mL^–1 spiked into mouse control plasma was also analyzed to generate a calibration curve corrected for matrix effects. A linear regression generated from calibration samples was used to quantify samples.[34] The LOD of the LC/MS method was approximately 2 ng·mL^–1. A 4.6 × 100 mm Kinetex 2.6 μm EVO C18 100 Å column at a flow rate of 0.5 mL·min^–1 was used in the analysis. The mobile phase consisted of water containing 0.1% formic acid as solvent A and acetonitrile with 0.1% formic acid as solvent B. The gradient conditions were maintained as follows: 90% A, 10% B to 100% B in 8 min; 100% held for 4 min as a washing step; 100% B back to 90% A in 2 min; 90% A, 10% B held for 3 min to reset and equilibrate the column. Each analytical run was automatically calibrated using a secondary line injection of 10 μL of sodium acetate external standard at 13 min. The injection volume of the analyte was 10 μL, and MS was operated in positive mode with electrospray ionization at source. Mass spectra were monitored in a range of 50–1000m/z. Data were processed using DataAnalysis 4.1 and QuantAnalysis (Bruker Daltronics).

In data set [6] the target is T1, MtbAdoK. The data set is described as follows: MtbAdoK enzymatic assay (pyruvate kinase–lactate dehydrogenase coupled), IC50 and Ki determination. Type of data set: biochemical. The settings on record: Cheng–Prusoff for competitive inhibition; 15.0 μM adenosine; ± SD of 2 experiments.
Data set [7] concerns the target T1, MtbAdoK. The data set is described as follows: Steady-state kinetics of MtbAdoK. The settings on record: versus adenosine.
Data set [8] addresses T2, hAdoK (Homo sapiens, UniProt P55263).
T2 construct: His-tag with Tobacco Etch Virus (TEV) cleavage site (N); made in house; host or cells: Escherichia coli BL21 (DE3)
Kind of data set: hAdoK enzymatic assay (pyruvate kinase–lactate dehydrogenase coupled), Ki determination. The class given is biochemical.

Data set [9] is classed as in vivo. The settings on record: female Swiss Webster mice, single oral dose 10 mg·kg^–1. On the procedure: as §1

T1 sequence (P9WID5 whole entry, looked up): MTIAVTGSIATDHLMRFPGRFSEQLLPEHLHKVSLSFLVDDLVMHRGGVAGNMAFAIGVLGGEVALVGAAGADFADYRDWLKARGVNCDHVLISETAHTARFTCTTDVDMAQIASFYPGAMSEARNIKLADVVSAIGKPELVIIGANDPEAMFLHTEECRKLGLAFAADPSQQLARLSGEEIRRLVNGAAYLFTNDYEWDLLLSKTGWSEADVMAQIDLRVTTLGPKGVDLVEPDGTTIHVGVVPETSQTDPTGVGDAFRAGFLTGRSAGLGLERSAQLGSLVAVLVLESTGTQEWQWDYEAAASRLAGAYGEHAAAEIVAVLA
T2 sequence (P55263 1-345 isoform P55263-2): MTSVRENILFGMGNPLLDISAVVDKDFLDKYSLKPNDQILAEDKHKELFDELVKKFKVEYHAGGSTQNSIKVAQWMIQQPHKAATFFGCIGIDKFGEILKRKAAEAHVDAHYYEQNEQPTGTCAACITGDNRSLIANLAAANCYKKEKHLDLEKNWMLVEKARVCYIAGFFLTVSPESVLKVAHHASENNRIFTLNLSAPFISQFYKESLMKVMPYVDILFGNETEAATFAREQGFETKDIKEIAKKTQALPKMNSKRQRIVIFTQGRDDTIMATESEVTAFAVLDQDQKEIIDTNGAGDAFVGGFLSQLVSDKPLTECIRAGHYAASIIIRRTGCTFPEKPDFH

By Km is commonly meant the substrate concentration at which the rate is half of its maximum. Consider `Nc1ncnc2c1ncn2[C@@H]1O[C@H](CO)[C@@H](O)[C@H]1O` [Compound 1, adenosine], for which, in [1], the Km is 0.8 to 3.4 µM.

Compound `Nc1ncnc2c1c(I)cn2[C@@H]1O[C@H](CO)[C@@H](O)[C@H]1O` [Compound 2, Iodotubercidin] had an MIC in data set [2] of 18 ± 10 µM (≈ 7.06 µg/mL).

In general, EC50 refers to the midpoint of the concentration-response curve. A word on the AUC(0-t): it is the area under the concentration-time curve up to a stated or last time point. One may read the Cmax as the maximum level reached in the sampled fluid or tissue. For orientation: Tmax means the time at which the peak concentration occurs. As usually defined, the AUC is concentration integrated over time. What is called Ki is a dissociation constant, usually derived from enzyme kinetics or from competition with a known ligand. For `OC[C@H]1O[C@@H](n2cnc3c(N4CCN(c5ccc(-c6ccccc6)cc5)CC4)ncnc32)[C@H](O)[C@@H]1O` [Compound 18, (2R,3R,4S,5R)-2-(6-(4-([1,1′-Biphenyl]-4-yl)piperazin-1-yl)-9H-purin-9-yl)-5-(hydroxymethyl)tetrahydrofuran-3,4-diol], the “cytotoxicity (in words)” value in data set [3] was “no cytotoxicity”. In addition, the EC50 in [4] (192 h) is about 4 µM; in [4] it was 4 ± 0.2 µM. In data set [5] (10 mg/kg), the AUC(0-t) was determined as 1800 ng·h/mL. For the same compound, in [5] (10 mg/kg), the Cmax was determined as 130 ± 20 ng/mL. The Tmax in data set [5] (10 mg/kg), in data set [5] (50 mg/kg), in data set [5] (100 mg/kg) and in data set [5] (200 mg/kg) was about 4 h each time. Further, the AUC came out at 9800 ng·h/mL in data set [5] (50 mg/kg), 15300 ng·h/mL in [5] (100 mg/kg) and 23200 ng·h/mL in data set [5] (200 mg/kg). Further, the Ki is 0.0053 ± 7e-05 µM in [6] and over 50 µM in [8] (Cheng–Prusoff, ± SD of 2 experiments). Further, the mode of inhibition result in data set [7] is “competitive”. In data set [8], the “activity against hAdoK (in words)” value was “no activity against hAdoK”. In [9], the tolerability result is reported as “well tolerated”.
